Bridge positions count the residues as written; N and C are the ends. Square brackets hold non-standard residues; d marks the D form. Ends that are not written are not given here. cellulose = not defined here; βAla = NCCC(=O)O
Experiments:
Assay type in all cases: binding
Design in all cases: key: No binding of immunoglobulin for the defined peptide variant, detection negative: 0; Binding of immunoglobulin for the defined peptide variant, detection positive: +
serum albumin = test: Cellulose-immobilized 13-mer peptide variants incubated with serum albumin (negative control), anti-human IgG-AP detection; conditions: blocking buffer without addition, 3 h room temperature
Summary of the method: (§1)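 Spot membrane, (βA)(βA) spacer; T-TBS pH 8.0 wash, block 5% saccharose/4% BSA. 3 h RT with IgG-Fc 1 μg/ml, serum 1:10,000, or block buffer only (specificity control). 3× wash, AP-anti-human IgG 1.2 μg/ml, NBT/BCIP in pH 9.5 buffer.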

[1] = tested on: immunoglobulins in human plasma; test: Cellulose-immobilized 13-mer peptide variants incubated with human plasma, anti-human IgG-AP detection; conditions: human plasma as sample, diluted 1:10,000 in blocking buffer, 3 h room temperature
Summary of the method: as §1

human IgG-Fc = test: Cellulose-immobilized 13-mer peptide variants incubated with human IgG-Fc, anti-human IgG-AP detection; conditions: IgG-Fc 1 μg/ml in blocking buffer, 3 h room temperature
Summary of the method: as §1

| Substance | Result for incubation with serum albumin (immunoglobulin binding detection) (serum albumin) | Result for incubation with human plasma (immunoglobulin binding detection) [1] | Result for incubation with human IgG-Fc (immunoglobulin binding detection) (human IgG-Fc) |
| --- | --- | --- | --- |
| 02P: cellulose-bound 13-mer variant DPAWHLGELVWCT-(βA)(βA) (DPAWHLGELVWCT[βAla][βAla]; not fully specified; printed as DPAWHLGELVWCT-(βA)(βA); also: cellulose-bound) | 0 | 0 | 0 |
| 08H: cellulose-bound 13-mer variant DCAWHLGHLVWCT-(βA)(βA) (DCAWHLGHLVWCT-{βAla-βAla-cellulose}; disulfide 2-12 (inferred); not fully specified (N-terminus); printed as DCAWHLGHLVWCT-(βA)(βA); reading uncertain) | 0 | + | + |
| 03Q: cellulose-bound 13-mer variant DCQWHLGELVWCT-(βA)(βA) (DCQWHLGELVWCT-{βAla-βAla-cellulose}; disulfide 2-12 (inferred); reading uncertain; also: printed as DCQWHLGELVWCT-(βA)(βA)) | 0 | 0 | + |
| 10G: cellulose-bound 13-mer variant DCAWHLGELGWCT-(βA)(βA) (DCAWHLGELGWCT-{βAla-βAla-cellulose}; disulfide 2-12 (inferred); reading uncertain; also: printed as DCAWHLGELGWCT-(βA)(βA)) | 0 | 0 | 0 |
| 09K: cellulose-bound 13-mer variant DCAWHLGEKVWCT-(βA)(βA) (DCAWHLGEKVWCT-{βAla-βAla-cellulose}; disulfide 2-12 (inferred); reading uncertain; also: printed as DCAWHLGEKVWCT-(βA)(βA)) | 0 | + | + |
| 09Q: cellulose-bound 13-mer variant DCAWHLGEQVWCT-(βA)(βA) (DCAWHLGEQVWCT-{βAla-βAla-cellulose}; disulfide 2-12 (inferred); reading uncertain; also: printed as DCAWHLGEQVWCT-(βA)(βA)) | 0 | 0 | + |
| 07V: cellulose-bound 13-mer variant DCAWHLVELVWCT-(βA)(βA) (DCAWHLVELVWCT-{βAla-βAla-cellulose}; disulfide 2-12 (inferred); not fully specified (N-terminus); printed as DCAWHLVELVWCT-(βA)(βA); reading uncertain) | 0 | 0 | 0 |
| 08C: cellulose-bound 13-mer variant DCAWHLGCLVWCT-(βA)(βA) (DCAWHLGCLVWCT-{βAla-βAla-cellulose}; not fully specified (N-terminus); printed as DCAWHLGCLVWCT-(βA)(βA); cysteine pairing not given here; reading uncertain) | 0 | 0 | 0 |
| 02Y: cellulose-bound 13-mer variant DYAWHLGELVWCT-(βA)(βA) (DYAWHLGELVWCT[βAla][βAla]; not fully specified; printed as DYAWHLGELVWCT-(βA)(βA); also: cellulose-bound) | 0 | 0 | 0 |
| 05D: cellulose-bound 13-mer variant DCAWDLGELVWCT-(βA)(βA) (disulfide 2-12 (inferred); not fully specified (N-terminus, C-terminus); printed as DCAWDLGELVWCT-(βA)(βA); also: cellulose-bound) | 0 | 0 | 0 |
| 01N: cellulose-bound 13-mer variant NCAWHLGELVWCT-(βA)(βA) (NCAWHLGELVWCT-{βAla-βAla-cellulose}; disulfide 2-12 (inferred); reading uncertain; also: printed as NCAWHLGELVWCT-(βA)(βA)) | 0 | 0 | + |
| 03W: cellulose-bound 13-mer variant DCWWHLGELVWCT-(βA)(βA) (DCWWHLGELVWCT-{βAla-βAla-cellulose}; disulfide 2-12 (inferred); reading uncertain; also: printed as DCWWHLGELVWCT-(βA)(βA)) | 0 | 0 | 0 |
| 05R: cellulose-bound 13-mer variant DCAWRLGELVWCT-(βA)(βA) (disulfide 2-12 (inferred); not fully specified (N-terminus, C-terminus); printed as DCAWRLGELVWCT-(βA)(βA); also: cellulose-bound) | 0 | 0 | 0 |
| 07W: cellulose-bound 13-mer variant DCAWHLWELVWCT-(βA)(βA) (DCAWHLWELVWCT-{βAla-βAla-cellulose}; disulfide 2-12 (inferred); not fully specified (N-terminus); printed as DCAWHLWELVWCT-(βA)(βA); reading uncertain) | 0 | 0 | 0 |
| 09C: cellulose-bound 13-mer variant DCAWHLGECVWCT-(βA)(βA) (DCAWHLGECVWCT-{βAla-βAla-cellulose}; not fully specified; printed as DCAWHLGECVWCT-(βA)(βA); cysteine pairing not given here; reading uncertain) | 0 | 0 | 0 |
| 04Y: cellulose-bound 13-mer variant DCAYHLGELVWCT-(βA)(βA) (disulfide 2-12 (inferred); not fully specified (N-terminus, C-terminus); printed as DCAYHLGELVWCT-(βA)(βA); also: cellulose-bound) | 0 | + | + |
| 09P: cellulose-bound 13-mer variant DCAWHLGEPVWCT-(βA)(βA) (DCAWHLGEPVWCT-{βAla-βAla-cellulose}; disulfide 2-12 (inferred); reading uncertain; also: printed as DCAWHLGEPVWCT-(βA)(βA)) | 0 | 0 | + |
| 10T: cellulose-bound 13-mer variant DCAWHLGELTWCT-(βA)(βA) (DCAWHLGELTWCT-{βAla-βAla-cellulose}; disulfide 2-12 (inferred); reading uncertain; also: printed as DCAWHLGELTWCT-(βA)(βA)) | 0 | 0 | 0 |
| 01E: cellulose-bound 13-mer variant ECAWHLGELVWCT-(βA)(βA) (ECAWHLGELVWCT-{βAla-βAla-cellulose}; disulfide 2-12 (inferred); reading uncertain; also: printed as ECAWHLGELVWCT-(βA)(βA)) | 0 | + | + |

From US7205382B2, “Peptides, the production and use thereof for binding immunoglobulins” (Fresenius Medical Care Affina GmbH, priority 2000, dated 2007)
